Laboratory results reported in patent US9242996B2 (Novartis AG, priority 2013, dated 2016).
pIC50: −log10 of the molar value.

Target: activated ERK2 (Homo sapiens (Human), UniProt P28482)
Test: Activated ERK2 (20 pM) Kinase Assay (AlphaScreen, ERKtide phosphorylation)
Assay type: biochemical
Conditions: 0.02 nM ERK2, 400 nM ERKtide peptide, 35 μM ATP, 30 min preincubation
How it was run: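 AlphaScreen read-out (anti-phospho-EGFR Thr669 antibody, protein A acceptor/streptavidin donor beads) of ERKtide (400 nM) phosphorylation by 20 pM activated ERK2 at 35 μM ATP.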

Chain of activated ERK2 (P28482 whole entry): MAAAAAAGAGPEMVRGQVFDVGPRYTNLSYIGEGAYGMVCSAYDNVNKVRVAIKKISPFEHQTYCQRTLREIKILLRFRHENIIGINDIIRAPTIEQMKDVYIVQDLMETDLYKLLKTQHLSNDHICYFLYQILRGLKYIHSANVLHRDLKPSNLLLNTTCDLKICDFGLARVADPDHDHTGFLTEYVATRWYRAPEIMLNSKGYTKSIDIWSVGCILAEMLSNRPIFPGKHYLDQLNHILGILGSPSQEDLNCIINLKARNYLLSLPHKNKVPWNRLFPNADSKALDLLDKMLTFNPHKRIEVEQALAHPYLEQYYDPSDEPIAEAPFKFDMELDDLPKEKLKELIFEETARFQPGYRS

| pIC50 | SMILES |
| --- | --- |
| 10.22 | Cn1nccc1-c1cnc(N)c(-c2ccc(C(=O)N[C@H](CO)c3cccc(CF)c3)c(F)c2)c1 [Example 254, (S)-4-(2-amino-5-(1-methyl-1H-pyrazol-5-yl)pyridin-3-yl)-2-fluoro-N-(1-(3-(fluoromethyl)phenyl)-2-hydroxyethyl) benzamide] |
| 10.33 | Cc1nn(C)cc1-c1cnc(N)c(-c2ccc(C(=O)N[C@H](CO)c3cc(F)cc(C(F)F)c3)c(F)c2)c1 [Example 270, (S)-4-(2-amino-5-(1,3-dimethyl-1H-pyrazol-4-yl)pyridin-3-yl)-N-(1-(3-(difluoromethyl)-5-fluorophenyl)-2-hydroxyethyl)-2-fluorobenzamide] |
| 10.12 | CNC[C@@H](NC(=O)c1ccc(-c2nc([C@@H]3CC[C@@H](O)[C@H](F)C3)cnc2N)cc1F)c1cccc(Br)c1 [Example 359, 4-(3-amino-6-((1R,3R,4R)-3-fluoro-4-hydroxy-cyclohexyl)pyrazin-2-yl)-N-((S)-1-(3-bromophenyl)-2-(methylamino)ethyl)-2-fluorobenzamide] |
| 5.98 | Nc1ncc([C@H]2CC[C@@H](O)CC2)nc1-c1ccc(C(=O)N[C@H](CO)c2cccc(C(F)(F)F)c2)c(F)c1 [Example 341, 4-(3-amino-6-((1s,4R)-4-hydroxy-cyclohexyl)pyrazin-2-yl)-2-fluoro-N-((S)-2-hydroxy-1-(3-(trifluoromethyl)phenyl)ethyl) benzamide] |
| 10.43 | Cc1c(-c2cnc(N)c(-c3ccc(C(=O)N[C@H](CO)c4cccc(C(F)F)c4)c(F)c3)c2)cnn1C [Example 276, (S)-4-(2-amino-5-(1,5-dimethyl-1H-pyrazol-4-yl)pyridin-3-yl)-N-(1-(3-(difluoromethyl)phenyl)-2-hydroxyethyl)-2-fluorobenzamide] |
| 9.20 | Nc1ncc(C2CCOCC2)nc1-c1ccc(C(=O)N[C@H](CO)c2ccccc2)cc1 [Example 135, (S)-4-(3-amino-6-(2,2,6,6-tetradeuterido-tetrahydro-2H-pyran-4-yl)pyrazin-2-yl)-N-(2-hydroxy-1-phenylethyl)benzamide] |
| 10.31 | Nc1ncc([C@H]2CC[C@H](O)CC2)nc1-c1ccc(C(=O)N[C@H](CO)c2cccc(Br)c2)c(F)c1 [Example 436, 4-(3-amino-6-((1r,4S)-4-hydroxy-cyclohexyl)pyrazin-2-yl)-N-((S)-1-(3-bromophenyl)-2-hydroxyethyl)-2-fluorobenzamide] |
| 8.07 | Nc1ncc(C(=O)N2CCC(O)CC2)cc1-c1ccc(C(=O)N[C@H](CO)c2cc(F)cc(Br)c2)c(F)c1 [Example 477, (S)-4-(2-amino-5-(4-hydroxypiperidine-1-carbonyl)pyridin-3-yl)-N-(1-(3-bromo-5-fluorophenyl)-2-hydroxyethyl)-2-fluorobenzamide] |
| 10.48 | Nc1ncc(C2CCCC(O)C2)nc1-c1ccc(C(=O)N[C@H](CO)c2cc(F)cc(Br)c2)c(F)c1 (single isomer, unassigned) [Example 386] |
| 10.55 | CNC[C@@H](NC(=O)c1ccc(-c2nc(C3CCOCC3)cnc2N)cc1F)c1cccc(Cl)c1 [Example 176, (S)-4-(3-amino-6-(tetrahydro-2H-pyran-4-yl)pyrazin-2-yl)-N-(1-(3-chlorophenyl)-2-(methylamino)ethyl)-2-fluorobenzamide] |
| 11.17 | NC[C@@H](NC(=O)c1ccc(-c2nc(C3CCOCC3)cnc2N)cc1F)c1cc(F)cc(Br)c1 [Example 180, (S)—N-(2-amino-1-(3-bromo-5-fluorophenyl)ethyl)-4-(3-amino-6-(tetrahydro-2H-pyran-4-yl)pyrazin-2-yl)-2-fluorobenzamide] |
| 9.94 | [N-]=[N+]=NC[C@@H](NC(=O)c1ccc(-c2nc(C3CCOCC3)cnc2N)cc1F)c1cccc(Cl)c1 [Example 404, (S)-4-(3-amino-6-(tetrahydro-2H-pyran-4-yl)pyrazin-2-yl)-N-(2-azido-1-(3-chlorophenyl)ethyl)-2-fluorobenzamide] |
| 10.40 | CO[C@H]1CC[C@H](c2cnc(N)c(-c3ccc(C(=O)N[C@H](CN)c4cccc(Cl)c4)c(F)c3)n2)CC1 [Example 18, N—((S)-2-amino-1-(3-chlorophenyl)ethyl)-4-(3-amino-6-((1r,4S)-4-methoxycyclohexyl)pyrazin-2-yl)-2-fluorobenzamide] |
| 10.70 | CSc1cc(F)cc([C@@H](CO)NC(=O)c2ccc(-c3nc([C@H]4CC[C@H](O)CC4)cnc3N)cc2F)c1 [Example 396, 4-(3-amino-6-((1r,4S)-4-hydroxy-cyclohexyl)pyrazin-2-yl)-2-fluoro-N-((S)-1-(3-fluoro-5-(methylthio)phenyl)-2-hydroxyethyl) benzamide] |
| 9.48 | COC(=O)NC[C@@H](NC(=O)c1ccc(-c2nc(C3CCOCC3)cnc2N)cc1F)c1cccc(Cl)c1 [Example 407, (S)-methyl (2-(4-(3-amino-6-(tetrahydro-2H-pyran-4-yl)pyrazin-2-yl)-2-fluoro-benzamido)-2-(3-chlorophenyl)ethyl)carbamate] |
| 10.61 | CCNC[C@@H](NC(=O)c1ccc(-c2nc(C3CCOCC3)cnc2N)cc1F)c1cccc(Br)c1 [Example 378, (S)-4-(3-amino-6-(tetrahydro-2H-pyran-4-yl)pyrazin-2-yl)-N-(1-(3-bromophenyl)-2-(ethylamino)ethyl)-2-fluorobenzamide] |
| 9.03 | Cn1cc(-c2cnc(N)c(-c3ccc(C(=O)N[C@H](CO)c4ccc(F)c(Cl)c4)c(F)c3)c2)cn1 [Example 241, (S)-4-(2-amino-5-(1-methyl-1H-pyrazol-4-yl)pyridin-3-yl)-N-(1-(3-chloro-4-fluorophenyl)-2-hydroxyethyl)-2-fluorobenzamide] |
| 10.68 | Cn1nccc1-c1cnc(N)c(-c2ccc(C(=O)N[C@H](CN)c3cccc(Cl)c3)c(F)c2)c1 [Example 233, (S)-N-(2-amino-1-(3-chlorophenyl)ethyl)-4-(2-amino-5-(1-methyl-1H-pyrazol-5-yl)pyridin-3-yl)-2-fluorobenzamide] |
| 10.74 | CNC[C@@H](NC(=O)c1ccc(-c2nc([C@H]3CC[C@H](O)CC3)cnc2N)cc1F)c1cc(F)cc(Br)c1 [Example 376, 4-(3-amino-6-((1r,4S)-4-hydroxy-cyclohexyl)pyrazin-2-yl)-N-((S)-1-(3-bromo-5-fluorophenyl)-2-(methylamino)ethyl)-2-fluorobenzamide] |
| 5.48 | CN1C[C@@H](NC(=O)c2ccc(-c3cc(-c4cnn(C)c4)cnc3N)cc2F)[C@H](c2ccc(Cl)c(F)c2)C1 (stereo in doubt) [Example 209, trans-4-(2-amino-5-(1-methyl-1H-pyrazol-4-yl)pyridin-3-yl)-N-((3S,4R)-4-(4-chloro-3-fluorophenyl)-1-methylpyrrolidin-3-yl)-2-fluorobenzamide] |
| 10.84 | CNC[C@@H](NC(=O)c1ccc(-c2nc([C@H]3CC[C@H](O)[C@@H](F)C3)cnc2N)cc1F)c1cc(F)cc(I)c1 [Example 357, 4-(3-amino-6-((1S,3S,4S)-3-fluoro-4-hydroxy-cyclohexyl)pyrazin-2-yl)-2-fluoro-N-((S)-1-(3-fluoro-5-iodophenyl)-2-(methylamino)ethyl)benzamide] |
| 10.98 | Cc1nn(C(F)F)cc1-c1cnc(N)c(-c2ccc(C(=O)N[C@H](CO)c3cc(F)cc(CF)c3)c(F)c2)c1 [Example 206, (S)-4-(2-amino-5-(1-(difluoromethyl)-3-methyl-1H-pyrazol-4-yl)pyridin-3-yl)-2-fluoro-N-(1-(3-fluoro-5-(fluoromethyl)phenyl)-2-hydroxyethyl)benzamide] |
| 9.43 | Nc1ncc([C@H]2CC[C@H](O)CC2)nc1-c1ccc(C(=O)N[C@H](CNCCF)c2cc(F)cc(Br)c2)c(F)c1 [Example 412, 4-(3-amino-6-((1r,4S)-4-hydroxy-cyclohexyl)pyrazin-2-yl)-N-((S)-1-(3-bromo-5-fluorophenyl)-2-((2-fluoroethyl)amino)ethyl)-2-fluorobenzamide] |
| 4.99 | CN1C[C@H](NC(=O)c2ccc(-c3cc(-c4cnn(C)c4)cnc3N)cc2F)[C@@H](c2ccc(Cl)c(F)c2)C1 (stereo in doubt) [Example 210, trans-4-(2-amino-5-(1-methyl-1H-pyrazol-4-yl)pyridin-3-yl)-N-((3R,45)-4-(4-chloro-3-fluorophenyl)-1-methylpyrrolidin-3-yl)-2-fluorobenzamide] |
| 10.40 | CNC[C@@H](NC(=O)c1ccc(-c2nc([C@H]3CC[C@H](OC)CC3)cnc2N)cc1F)c1cccc(Br)c1 [Example 375, 4-(3-amino-6-((1r,4S)-4-methoxy-cyclohexyl)pyrazin-2-yl)-N-((S)-1-(3-bromophenyl)-2-(methylamino)ethyl)-2-fluorobenzamide] |
| 8.13 | Nc1ncc([C@H]2CC[C@H](O)CC2)nc1-c1ccc(C(=O)N[C@@H]2C[C@H]2c2ccccc2)c(F)c1 [Example 203, 4-(3-amino-6-((1r,4R)-4-hydroxycyclohexyl)pyrazin-2-yl)-2-fluoro-N-((1R,2S)-2-phenylcyclopropyl)benzamide] |
| 10.76 | Nc1ncc([C@H]2CC[C@H](O)CC2)nc1-c1ccc(C(=O)N[C@H](CO)c2cccc(I)c2)c(F)c1 [Example 346, 4-(3-amino-6-((1r,4S)-4-hydroxy-cyclohexyl)pyrazin-2-yl)-2-fluoro-N-((S)-2-hydroxy-1-(3-iodophenyl)ethyl) benzamide] |
| 11.08 | CSc1cc(F)cc([C@@H](CO)NC(=O)c2ccc(-c3nc(C4CCOCC4)cnc3N)cc2F)c1 [Example 395, (S)-4-(3-amino-6-(tetrahydro-2H-pyran-4-yl)pyrazin-2-yl)-2-fluoro-N-(1-(3-fluoro-5-(methylthio)phenyl)-2-hydroxyethyl) benzamide] |
| 10.80 | Cn1nncc1-c1cnc(N)c(-c2ccc(C(=O)N[C@H](CO)c3cc(F)cc(I)c3)c(F)c2)c1 [Example 267, (S)-4-(2-amino-5-(1-methyl-1H-1,2,3-triazol-5-yl)pyridin-3-yl)-2-fluoro-N-(1-(3-fluoro-5-iodophenyl)-2-hydroxyethyl) benzamide] |
